System: Aspergillus niger heat-labile phosphatase (4-nitrophenylphosphatase), purified, strain NRRL-3
Assay: A. niger phosphatase activity assay with 4-NPP as substrate (formation of p-nitrophenol at 400 nm)
Assay type: biochemical
Method: A. niger phosphatase activity was routinely determined by monitoring, in a spectrophotometer set at an absorbance wavelength of 400 nm, the formation of p-nitrophenol generated by the hydrolysis of 4-NPP (purchased from Calbiochem). Non-enzymatic hydrolysis controls were routinely included. The phosphatase assay contained the following in a total volume of 1.0 ml: 8 mM 4-NPP; 25 mM Tris-HCl (pH 8.0); and 5 mM MgCl2. The reaction, which was initiated by addition of the crude, mycelium-free supernatant fluid mentioned above, was carried out at 30° C. in a Varian DMS 70 spectrophotometer with a wavelength bandpass of 2 nanometers. Molar absorptivity of 4-nitrophenol at pH 8.0 was 1.62×10^4 M^-1 cm^-1.
To further examine one of these potential substrates at a greater level of sensitivity, the enzyme was incubated with [gamma-^32 P]ATP under identical conditions and assayed for the liberation of ^32 Pi. No liberation above background was detected and hydrolysis of ATP appeared to occur at a rate less than one/ten-millionth of that observed with 4-NPP.
Prospective inhibitors were added to the standard assay with 4-NPP as substrate and inhibition was monitored and expressed as percent inhibition of the untreated sample (TABLE 3).

[1] = 1 mM inhibitor, incubated with the phosphatase for 15 minutes at room temperature prior to assay, 4-NPP as substrate
[2] = 10 mM inhibitor, standard assay with 4-NPP as substrate
[3] = 1 mM inhibitor, standard assay with 4-NPP as substrate

Row | Inhibition (%) [2] [%] | SMILES | Inhibition (%) [1] [%] | Inhibition (%) [3] [%] | further results
1 | – | O=C(O)CI [iodoacetate] | 96 | – | –
2 | – | Nc1ncnc2c1ncn2[C@@H]1O[C@H](COP(=O)(O)OP(=O)(O)OP(=O)(O)O)[C@@H](O)[C@H]1O [ATP, adenosine triphosphate] | – | – | Ki (competitive inhibition of hydrolysis of 4-NPP, read-out: Ki for ATP): 1300 µM
3 | 39 | O=P(O)(O)O [orthophosphate] | – | – | –
4 | – | CCN1C(=O)C=CC1=O [N-ethylmaleimide] | 75 | – | –
5 | 56 | O=P(O)(O)OP(=O)(O)O [PPi, inorganic pyrophosphate] | – | 4 | –

Row | SMILES | Inhibition (%) [2] [%] | Inhibition (%) [1] [%] | Inhibition (%) [3] [%] | further results
6 | [F-].[Na+] [sodium fluoride] | 80 | – | 22 | –
